How the values were obtained:
DNA ligase 1 [1] = biological target: T1, DNA ligase 1 (Homo sapiens, UniProt P18858); assay: Inhibition of human DNA ligase 1 using 52-mer DNA/25-mer DNA/27-mer DNA as substrate
DNA ligase 1 [2] = biological target: T1, DNA ligase 1; assay: Inhibition of human DNA ligase 1
DNA ligase 1 [3] = biological target: T1, DNA ligase 1; assay: Inhibition of human DNA ligase 1 at 100 uM using nicked DNA as substrate by high-throughput fluorescence energy transfer-based DNA joining assay relative to control
DNA ligase 1 [4] = biological target: T1, DNA ligase 1; assay: Competitive inhibition of human DNA ligase 1 using nicked DNA as substrate by high-throughput fluorescence energy transfer-based DNA joining assay
DNA ligase 3 = biological target: T2, DNA ligase 3 (Homo sapiens, UniProt P49916); assay: Competitive inhibition of human DNA ligase 3 using nicked DNA as substrate by high-throughput fluorescence energy transfer-based DNA joining assay
T2 sequence (P49916 whole entry): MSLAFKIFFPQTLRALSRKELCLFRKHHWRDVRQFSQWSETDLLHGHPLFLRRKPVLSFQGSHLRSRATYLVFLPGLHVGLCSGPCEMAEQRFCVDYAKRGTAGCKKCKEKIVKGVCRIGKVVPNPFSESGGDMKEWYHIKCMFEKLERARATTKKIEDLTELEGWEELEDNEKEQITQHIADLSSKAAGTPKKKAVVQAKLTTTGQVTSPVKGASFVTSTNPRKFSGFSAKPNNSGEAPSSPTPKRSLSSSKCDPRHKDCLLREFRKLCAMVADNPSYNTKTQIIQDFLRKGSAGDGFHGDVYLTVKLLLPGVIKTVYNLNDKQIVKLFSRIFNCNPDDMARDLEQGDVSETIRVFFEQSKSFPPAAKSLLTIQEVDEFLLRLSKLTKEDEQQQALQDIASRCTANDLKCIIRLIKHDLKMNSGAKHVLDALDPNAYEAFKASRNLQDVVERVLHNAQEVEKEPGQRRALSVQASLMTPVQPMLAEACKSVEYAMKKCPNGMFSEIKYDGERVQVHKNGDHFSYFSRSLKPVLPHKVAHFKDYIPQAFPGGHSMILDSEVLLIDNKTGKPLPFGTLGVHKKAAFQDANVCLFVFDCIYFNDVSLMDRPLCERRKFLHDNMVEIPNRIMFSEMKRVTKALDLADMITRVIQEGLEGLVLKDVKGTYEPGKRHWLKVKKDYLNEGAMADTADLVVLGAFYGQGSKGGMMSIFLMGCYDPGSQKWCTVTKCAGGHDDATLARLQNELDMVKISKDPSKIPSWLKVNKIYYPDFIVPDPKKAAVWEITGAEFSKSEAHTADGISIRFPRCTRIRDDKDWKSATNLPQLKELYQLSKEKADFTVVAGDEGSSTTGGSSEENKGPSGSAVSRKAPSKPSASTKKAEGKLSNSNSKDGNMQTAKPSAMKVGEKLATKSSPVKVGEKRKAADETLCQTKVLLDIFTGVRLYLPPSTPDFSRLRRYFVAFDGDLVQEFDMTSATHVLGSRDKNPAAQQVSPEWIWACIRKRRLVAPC

HCT-116 = assay: Antiproliferative activity against human HCT116 cells relative to control; assay type: functional
DNA ligase 4 = biological target: T3, DNA ligase 4 (Homo sapiens, UniProt P49917); assay: Competitive inhibition of human DNA ligase 4 using nicked DNA as substrate by high-throughput fluorescence energy transfer-based DNA joining assay
T3 sequence (P49917 whole entry): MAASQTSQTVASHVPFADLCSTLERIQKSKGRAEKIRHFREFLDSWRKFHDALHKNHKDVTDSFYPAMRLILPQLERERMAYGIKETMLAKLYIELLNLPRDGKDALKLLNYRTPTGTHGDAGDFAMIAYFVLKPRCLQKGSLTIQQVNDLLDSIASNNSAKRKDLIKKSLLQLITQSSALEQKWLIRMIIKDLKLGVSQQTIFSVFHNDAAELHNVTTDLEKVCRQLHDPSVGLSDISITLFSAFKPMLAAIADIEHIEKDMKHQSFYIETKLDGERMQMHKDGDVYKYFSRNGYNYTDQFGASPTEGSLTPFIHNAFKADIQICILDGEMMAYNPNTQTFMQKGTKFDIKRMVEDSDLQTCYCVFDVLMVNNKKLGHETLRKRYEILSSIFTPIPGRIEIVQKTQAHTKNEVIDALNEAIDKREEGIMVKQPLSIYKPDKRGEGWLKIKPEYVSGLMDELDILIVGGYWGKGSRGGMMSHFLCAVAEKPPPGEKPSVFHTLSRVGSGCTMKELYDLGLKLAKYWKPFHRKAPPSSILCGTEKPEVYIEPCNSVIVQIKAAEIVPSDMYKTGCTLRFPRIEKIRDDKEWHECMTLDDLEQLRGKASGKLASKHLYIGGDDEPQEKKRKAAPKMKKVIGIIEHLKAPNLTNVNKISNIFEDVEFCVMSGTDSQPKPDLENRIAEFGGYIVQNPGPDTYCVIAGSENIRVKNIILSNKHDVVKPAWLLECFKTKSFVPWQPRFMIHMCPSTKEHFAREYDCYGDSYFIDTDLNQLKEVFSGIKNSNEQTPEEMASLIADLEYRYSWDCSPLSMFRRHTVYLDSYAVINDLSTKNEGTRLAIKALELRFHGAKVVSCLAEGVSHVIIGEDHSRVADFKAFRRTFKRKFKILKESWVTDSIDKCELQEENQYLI

DNA ligase 1 [5] = biological target: T1, DNA ligase 1; assay: Uncompetitive inhibition of human DNA ligase 1 using nicked DNA as substrate by high-throughput fluorescence energy transfer-based DNA joining assay
HEK293 = assay: Cytotoxicity against HEK293 cells after 48 hrs by MTT assay; assay type: cell-based; conditions: Homo sapiens, HEK293, 48 h
[6] = Antiproliferative activity against human 46BR.1G1 cells after 48 hrs by MTT assay; assay type: functional, cell-based
MDA-MB-231 [7] = assay: Antiproliferative activity against human MDA-MB-231 cells after 48 hrs by MTT assay; assay type: functional, cell-based; conditions: MDA-MB-231, 48 h
DNA ligase 1 [8] = biological target: T1, DNA ligase 1; assay: Inhibition of human DNA ligase 1 at 50 uM using 52-mer DNA/25-mer DNA/27-mer DNA as substrate by fluorescence assay relative to control
HepG2 = assay: Antiproliferative activity against human HepG2 cells after 48 hrs by MTT assay; assay type: functional, cell-based; conditions: HepG2, 48 h
DLD-1 = assay: Antiproliferative activity against human DLD1 cells after 48 hrs by MTT assay; assay type: functional, cell-based; conditions: DLD-1, 48 h
4T1 = assay: Antiproliferative activity against mouse 4T1 cells after 48 hrs by MTT assay; assay type: functional, cell-based; conditions: 4T1, 48 h
DNA ligase 1 [9] = biological target: T1, DNA ligase 1; assay: Inhibition of human DNA ligase 1 at 25 uM using nicked DNA as substrate after 30 mins relative to control
DNA ligase 1 [10] = biological target: T1, DNA ligase 1; assay: Inhibition of human DNA ligase 1 using nicked DNA as substrate after 30 mins relative to control
MDA-MB-231 [11] = assay: Antiproliferative activity against human MDA-MB-231 cells at 10 uM after 48 hrs by MTT assay relative to control; assay type: functional; conditions: MDA-MB-231, 48 h

T1 sequence (P18858 whole entry): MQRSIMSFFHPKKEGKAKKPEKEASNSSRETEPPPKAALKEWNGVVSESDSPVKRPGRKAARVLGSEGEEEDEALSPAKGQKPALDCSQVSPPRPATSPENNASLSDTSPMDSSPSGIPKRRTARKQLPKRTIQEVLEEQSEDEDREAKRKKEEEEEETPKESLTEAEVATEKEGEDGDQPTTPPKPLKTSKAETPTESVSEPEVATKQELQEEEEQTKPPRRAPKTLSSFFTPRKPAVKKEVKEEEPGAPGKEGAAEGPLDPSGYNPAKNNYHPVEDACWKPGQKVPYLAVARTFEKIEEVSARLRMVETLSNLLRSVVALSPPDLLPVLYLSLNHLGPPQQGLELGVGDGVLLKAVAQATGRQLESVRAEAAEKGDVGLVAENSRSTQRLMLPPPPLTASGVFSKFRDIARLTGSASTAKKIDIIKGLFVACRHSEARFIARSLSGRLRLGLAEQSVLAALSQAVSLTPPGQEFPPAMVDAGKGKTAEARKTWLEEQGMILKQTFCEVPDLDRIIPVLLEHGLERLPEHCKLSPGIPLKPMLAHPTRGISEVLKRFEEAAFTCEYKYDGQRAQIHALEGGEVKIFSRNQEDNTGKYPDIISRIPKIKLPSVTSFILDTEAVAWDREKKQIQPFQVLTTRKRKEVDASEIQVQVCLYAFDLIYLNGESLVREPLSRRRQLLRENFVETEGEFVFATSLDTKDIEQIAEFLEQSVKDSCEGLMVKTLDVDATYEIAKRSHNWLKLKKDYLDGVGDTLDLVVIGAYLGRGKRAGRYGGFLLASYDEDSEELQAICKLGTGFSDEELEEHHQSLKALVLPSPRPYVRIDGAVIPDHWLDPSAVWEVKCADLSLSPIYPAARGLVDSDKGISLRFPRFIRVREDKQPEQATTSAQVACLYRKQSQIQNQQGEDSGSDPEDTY

O=C1c2cc(Cl)ccc2NC(c2ccc(Cl)c(Cl)c2)c2cccn21 (stereo unspecified)
IC50 (DNA ligase 1 [1]): 15.8 µM

N[C@H](CO)Cc1cc(I)c(Oc2ccc(O)cc2)c(I)c1
IC50 (DNA ligase 1 [2]): 1 µM

Cc1c(Br)cc(NCC(=O)N/N=C/c2cc([N+](=O)[O-])ccc2O)cc1Br
inhibition (DNA ligase 1 [3]): 78.3% | IC50 (DNA ligase 1 [4]): 10 µM | IC50 (DNA ligase 3): 10 µM | Activity (HCT-116): 70%

Nc1nc(S)nc(O)c1/N=C/c1ccccc1
inhibition (DNA ligase 1 [3]): 68.8% | IC50 (DNA ligase 4): 5 µM | IC50 (DNA ligase 1 [4]): 5 µM | IC50 (DNA ligase 3): 9 µM | Activity (HCT-116): 70%

O=C1c2cc(Cl)ccc2NC(c2ccc(Br)cc2)c2cccn21 (stereo unspecified)
IC50 (DNA ligase 1 [1]): 23.1 µM

O=c1[nH]ncc(N/N=C/c2ccc(O)c([N+](=O)[O-])c2)c1Cl
inhibition (DNA ligase 1 [3]): 59.8% | IC50 (DNA ligase 1 [5]): 12 µM | Activity (HCT-116): 70%

O=[N+]([O-])c1ccc(N/N=C(/c2ccc(O)cc2)c2cccc3ccccc23)c([N+](=O)[O-])c1
IC50 (HEK293): 12.6 µM | IC50 [6]: > 25 µM | IC50 (MDA-MB-231 [7]): 7.02 µM | inhibition (DNA ligase 1 [8]): 93.1% | IC50 (HepG2): 6.93 µM | IC50 (DLD-1): 6.78 µM

COc1cc(/C=C/c2cc(=O)oc3c2ccc2ccccc23)cc(OC)c1
IC50 (4T1): 11.6 µM | inhibition (DNA ligase 1 [9]): < 50% | IC50 (MDA-MB-231 [7]): 12.8 µM | inhibition (DNA ligase 1 [10]): 99.3% | inhibition at 10 µM (MDA-MB-231 [11]): > 50%

— ChEMBL document CHEMBL4334494, “Recent advances in the targeting of human DNA ligase I as a potential new strategy for cancer treatment” (Eur J Med Chem, 2019)
